Test results: patent US4333952A, “Growth promotors for ruminants” (Beecham Group Limited, priority 1979, dated 1982)
Where two headings read alike, the source gives them in different places.

Tests used:
[1] = system: rumen fluid; assay: in vitro incubation of buffered rumen fluid (methane inhibition, propionate enhancement, headspace gases and volatile fatty acids); type: cell-based, sheep; settings: for inhibition at 2 ppm / activation at 2 ppm / inhibition at 10 ppm / activation at 10 ppm: Ovis aries
Experimental: The compounds were tested for their ability to reduce or inhibit methane production and to enhance propionate formation. The method used is as follows:
The screening system is in vitro incubation of buffered rumen fluid with, or without, the addition of the test compound.
Rumen fluid is removed by suction from two rumenfistulated sheep, just before feeding. The fluid is strained and mixed. The incubation is for twenty hours in a shaking water-bath at 39° C. Each incubation flask contains: 30 ml McDougall's bicarbonate buffer, pH 6.7-6.9, 10 ml strained rumen fluid, 200 mg substrate (the substrate is a ground sample of the diet on which the sheep has been fed) and 1 ml 10% aqueous ethanol containing 0.2% Tween 80 and the compound under examination. Samples are taken at the end of the incubation period for analysis of headspace gases and volatile fatty acids, by g.l.c.
The compounds were tested at 10 ppm/flask, except for the compounds of Examples 9 and 10 which were tested at 5 ppm/flask.
Selected compounds were also tested according to the above protocol at doses of 2 and 3 ppm, the results being given in Table 2 below.
The compound of Example 1 was further tested in an in vitro a dose response study, according to the protocol above, at the doses shown in Table 3 below.

[2] = system: methanogenesis; assay: in vivo gas collection screen in sheep (respirometer, methanogenesis and hydrogen evolution); settings: sheep, 75 mg/day in feed, 5 week period
Experimental: In vivo studies in a "gas collection screen":
Groups of 4, 50 kg sheep were fed diets containing one of the compounds of formula (I) over a 5 week period. A different sheep from each group was put into a respirometer for 24 hours each day. Each sheep was thus monitored once in every […], gas flow was maintained by a peristaltic pump and measured using a commercial gas meter and a sub-sample collected in a butyl-rubber inner tube.

Structure (SMILES): OC(CNc1ccccc1)C(Cl)(Cl)Cl (stereo not drawn) [Example 4, 1,1,1-Trichloro-3-anilinopropan-2-ol]
- % hydrogen present ([1]; 10 ppm/flask, 20 h, 39° C.): 2.13%
- Molar % VFA Acetate ([1]; 10 ppm/flask, 20 h, 39° C.): 59.3 Molar %
- Molar % VFA Butyrate ([1]; 10 ppm/flask, 20 h, 39° C.): 13.7 Molar %
- Molar % VFA Propionate ([1]; 10 ppm/flask, 20 h, 39° C.): 23.9 Molar %
- TVFA ([1]; 10 ppm/flask, 20 h, 39° C.): 57.2 μM/ml
- inhibition at 2 ppm ([1]; 20 h, read-out: VFA production % change from control, Acetate): 12.8%
- activation at 2 ppm ([1]; 20 h, read-out: VFA production % change from control, Butyrate): 3%
- activation at 2 ppm ([1]; 20 h, read-out: VFA production % change from control, Propionate): 27.2%
- inhibition at 2 ppm ([1]; 20 h, read-out: VFA production % change from control, TVFA): 4%
- inhibition at 10 ppm ([1]; 20 h, read-out: VFA production % difference from control, Acetate): 36.4%
- activation at 10 ppm ([1]; 20 h, read-out: VFA production % difference from control, Butyrate): 18.2%
- activation at 10 ppm ([1]; 20 h, read-out: VFA production % difference from control, Propionate): 52.8%
- inhibition at 10 ppm ([1]; 20 h, read-out: VFA production % difference from control, TVFA): 16.7%
- inhibition at 10 ppm ([1]; 10 ppm/flask, 20 h, 39° C., read-out: % inhibition of methane): 98.5%
- inhibition at 2 ppm ([1]; Table 2, 2 ppm, read-out: % inhibition of methane): 20.8%
- % hydrogen in headspace gases ([1]; Table 2, 2 ppm): 0.09%
- Hydrogen evolution [2]: 1.8 liters/24 hours
- % inhibition of methanogenesis ([2]; * = significantly different from control, p < 0.01): 11.5%
